Assay results from the supplement of paper PMC10307832.

Key:
Experiment in all cases: relative viability (nuclei count vs DMSO), 5 days (fraction); higher = more cells survive
BEN = system: BEN
How it was run: (§1)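 Relative viability was taken as the ratio of nuclei in treated wells to nuclei in vehicle wells. Lung cancer cell lines in 1536-well plates received compounds by pin tool one day after seeding, either one drug alone or a fixed anchor-drug dose plus five library-drug doses (not always all listed) in √10 steps. Nuclei were counted on 4× images after 5 days of treatment, and values are medians of duplicate plates.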

CAL-12T = system: CAL-12T
How it was run: as §1

COR-L 105 = system: COR-L 105
How it was run: as §1

COR-L23 = system: COR-L23
How it was run: as §1

HARA = system: HARA
How it was run: as §1

HCC-15 = system: HCC-15
How it was run: as §1

HCC-366 = system: HCC-366
How it was run: as §1

HCC-44 = system: HCC-44
How it was run: as §1

HCC-827 = system: HCC-827
How it was run: as §1

HOP-62 = system: HOP-62
How it was run: as §1

LC-2-ad = system: LC-2-ad
How it was run: as §1

O=C(O)CCCCC(CCSCc1ccccc1)SCc1ccccc1 (centres undefined) [CPI-613] + Nc1nc2[nH]cc(CCc3ccc(C(=O)N[C@@H](CCC(=O)O)C(=O)O)cc3)c2c(=O)[nH]1 [Pemetrexed] (partner 0.2 µM)
relative viability (BEN; first compound 5 µM): 0.809
relative viability (BEN; first compound 15.81 µM): 0.571
relative viability (BEN; first compound 50 µM): 0.763
relative viability (BEN; first compound 158.11 µM): 0.76
relative viability (BEN; first compound 500 µM): 0.703
relative viability (CAL-12T; first compound 5 µM): 1.02
relative viability (CAL-12T; first compound 15.81 µM): 1.03
relative viability (CAL-12T; first compound 50 µM): 1.02
relative viability (CAL-12T; first compound 158.11 µM): 0.0985
relative viability (CAL-12T; first compound 500 µM): 0.0501
relative viability (COR-L 105; first compound 5 µM): 1.01
relative viability (COR-L 105; first compound 15.81 µM): 1.02
relative viability (COR-L 105; first compound 50 µM): 1.15
relative viability (COR-L 105; first compound 158.11 µM): 0.392
relative viability (COR-L 105; first compound 500 µM): 0.229
relative viability (COR-L23; first compound 5 µM): 0.216
relative viability (COR-L23; first compound 15.81 µM): 0.197
relative viability (COR-L23; first compound 50 µM): 0.192
relative viability (COR-L23; first compound 158.11 µM): 0.2
relative viability (COR-L23; first compound 500 µM): 0.013
relative viability (HARA; first compound 5 µM): 0.26
relative viability (HARA; first compound 15.81 µM): 0.229
relative viability (HARA; first compound 50 µM): 0.236
relative viability (HARA; first compound 158.11 µM): 0.269
relative viability (HARA; first compound 500 µM): 0.0403
relative viability (HCC-15; first compound 5 µM): 0.231
relative viability (HCC-15; first compound 15.81 µM): 0.227
relative viability (HCC-15; first compound 50 µM): 0.221
relative viability (HCC-15; first compound 158.11 µM): 0.155
relative viability (HCC-15; first compound 500 µM): 0.0248
relative viability (HCC-366; first compound 5 µM): 0.135
relative viability (HCC-366; first compound 15.81 µM): 0.152
relative viability (HCC-366; first compound 50 µM): 0.162
relative viability (HCC-366; first compound 158.11 µM): 0.123
relative viability (HCC-366; first compound 500 µM): 0.0078
relative viability (HCC-44; first compound 5 µM): 0.635
relative viability (HCC-44; first compound 15.81 µM): 0.61
relative viability (HCC-44; first compound 50 µM): 0.592
relative viability (HCC-44; first compound 158.11 µM): 0.622
relative viability (HCC-44; first compound 500 µM): 0.53
relative viability (HCC-827; first compound 5 µM): 0.251
relative viability (HCC-827; first compound 15.81 µM): 0.268
relative viability (HCC-827; first compound 50 µM): 0.276
relative viability (HCC-827; first compound 158.11 µM): 0.267
relative viability (HCC-827; first compound 500 µM): 0.273
relative viability (HOP-62; first compound 5 µM): 0.321
relative viability (HOP-62; first compound 15.81 µM): 0.309
relative viability (HOP-62; first compound 50 µM): 0.272
relative viability (HOP-62; first compound 158.11 µM): 0.163
relative viability (HOP-62; first compound 500 µM): 0.12
relative viability (LC-2-ad; first compound 5 µM): 0.256
relative viability (LC-2-ad; first compound 15.81 µM): 0.275
relative viability (LC-2-ad; first compound 50 µM): 0.254
relative viability (LC-2-ad; first compound 158.11 µM): 0.116
